Results as given in patent publication US20140371165A1, “Identification of NSC23925 Isomers to Reverse Multidrug Resistance in Human Cancers” (priority 2012, published 2014).
Entries after “also recorded” stand apart in the source; their conditions may differ. Counter-ions that a name gives are not always drawn.

Tests used:
MDR cancer cell lines = test: MTT reversal of drug resistance in MDR cell lines (cell line not specified); format: cell-based
Source text: (§1) A panel of parental cancer cell line and their daughter resistant cell lines, displaying MDR phenotype were used in this study. Human ovarian cancer cell line SKOV-3, breast cancer cell line MCF-7 and colon cancer cell line SW480, the osteosarcoma cell line U-2OS, KHOS, uterine sarcoma cell line MESSA and its doxorubicin selected drug resistant cell line MESSA/Dx5, non-small cell lung cancer cell line H-69 and its doxorubicin selected drug resistant cell line H-69AR (overexpress MRP1) were obtained from the ATCC (Rockville, Md.). Dr. Efstathios Gonos (Institute of Biological Research & Biotechnology, Athens, Greece) provided the doxorubicin resistant U-2OS R2 (referred in the text below as U-2OSDR), KHOS R2 cell lines. Dr. Erasmus Schneider (Wadsworth Center, Albany) provided the mitoxantrane resistant breast cancer MCF-7/MX (overexpress BCRP) cell line. All the cell lines were cultured in RPMI 1640 (Invitrogen, Carlsbad, Calif.) supplemented with 10% fetal bovine serum, 100-units/ml penicillin and 100 μg/ml streptomycin (Invitrogen). Cells were incubated at 37° C. in 5% CO2-95% air atmosphere and passaged when near confluent monolayers were achieved using 2% trypsin-EDTA solution. Drug-resistant cell lines were periodically cultured in the respective drug to confirm their drug resistance characteristics. The fresh chemotherapy drugs were obtained from the pharmacy at the Massachusetts General Hospital and stored at −20° C.
(§2) To evaluate for reversal of Pgp-mediated MDR, SKOV-3TR, MCF-7adr and SW480TR cell lines were seeded into 96-well tissue culture plate at 2,000 cells per well with varying concentrations of chemotherapy drugs and NSC23925b for 6 days. Cell proliferation IC50 (concentration required for 50% inhibition) and MDR reversal IC50 were determined from dose-response curves carried out in triplicate in 96-well plate. Fold of reverse resistance for individual drugs were defined as the IC50 of MDR cells without NSC23925b treatment divided by the IC50 of MDR cells treated with NSC23925b. To test for the effect of reversal of MRP1 or BCRP-mediated MDR, H-69AR or MCF-7/MX cells were placed into 96-wells and treated with chemotherapy drugs similar as described above. Drug cytotoxicity was assessed in vitro using the MTT assay as previously described. Drugs at the concentrations utilized in the MTT assay were performed in the absence of cells to verify no change in absorbance. Response curves were fitted with use of GraphPad PRISM 4 software (GraphPad Software).

SKOV-3TR = test: MTT cytotoxicity assay and reversal of MDR in SKOV-3TR; format: cell-based, human
Source text: as §1, with “Drug-resistant cell lines were periodically cultured in the respective drug to confirm their drug resistance characteristics.” left out
as §2, with “To test for the effect of reversal of MRP1 or BCRP-mediated MDR, H-69AR or MCF-7/MX cells were placed into 96-wells and treated with chemotherapy drugs similar as described above.” left out, “Drugs at the concentrations utilized in the MTT assay were performed in the absence of cells to verify no change in absorbance.” left out
Structure and activity relationship (SAR) of the four NSC23925 isomers for reversing MDR were evaluated in human ovarian cancer MDR cell line SKOV-3TR by MTT assay (FIGS. 1A-D). Cells were treated with the paclitaxel and NSC23925 diastereomers NSC23925a (FIG. 1A), NSC23925b (FIG. 1B), NSC23925c (FIG. 1C) and NSC23925d (FIG. 1D) in RPMI1640 complete media at the indicated concentrations. The relative sensitivity of each line to paclitaxel was determined by MTT analysis 6 days post-treatment.

H-69AR = test: MTT reversal of MRP1-mediated MDR in H-69AR; format: cell-based, human; conditions: non-Pgp expressing drug resistant cell line
MCF-7adr = test: MTT cytotoxicity assay and reversal of MDR in MCF-7adr; format: cell-based, human
Source text: as §1, with “Drug-resistant cell lines were periodically cultured in the respective drug to confirm their drug resistance characteristics.” left out
as §2, with “To test for the effect of reversal of MRP1 or BCRP-mediated MDR, H-69AR or MCF-7/MX cells were placed into 96-wells and treated with chemotherapy drugs similar as described above.” left out, “Drugs at the concentrations utilized in the MTT assay were performed in the absence of cells to verify no change in absorbance.” left out
MCF-7adr and SW480TR cells were treated with paclitaxel (FIGS. 2A-B), doxorubicin (FIGS. 2C-D) or mitoxantrane (FIGS. 2E-F) and NSC23925b in RPMI1640 complete media at the indicated concentrations. The relative sensitivity of each line to the indicated drugs was determined by MTT analysis 6 days post-treatment.

[1] = Reverse Drug Resistance by NSC23925b, value = chemotherapy drug, hydrochloride

SMILES: COc1ccc(-c2cc([C@H](O)[C@H]3CCCCN3)c3ccccc3n2)cc1 [NSC23925b, (2-(4-methoxyphenyl)quinolin-4-yl)(piperidin-2-yl)methanol hydrochloride]
- effects on the drug sensitivities of cisplatin, carboplatin, toptecan and methotrexate (MDR cancer cell lines): no significant effects
- Decreased Drug Resistance (drug to which NSC23925b decreased resistance) (MDR cancer cell lines; [1]): Gemcitabine; also recorded: ET-743; also recorded: Mitoxantrane; also recorded: Paclitaxel; also recorded: Docetaxel; also recorded: Doxorubicin; also recorded: Vincristine; also recorded: Daunorubicin
- No Effect (drug whose resistance NSC23925b did not change) (MDR cancer cell lines; [1]): Cisplatin; also recorded: Carboplatin; also recorded: Topotecan; also recorded: Methotrexate
- effect on doxorubicin-induced cell death (MTT cytotoxicity assay) (MDR cancer cell lines; combined with doxorubicin): synergistic effect
- reverse MDR to paclitaxel, doxorubicin, and mitoxantrane (MDR cancer cell lines; ovarian, breast, uterine, colon, and sarcoma MDR cancer cell lines): able to reverse MDR
- fold-reversal of drug resistance (SKOV-3TR; Doxorubicin, NSC23925b 0.1 μM): 2 fold
- fold-reversal of drug resistance (SKOV-3TR; Doxorubicin, NSC23925b 0.5 μM): 9 fold
- fold-reversal of drug resistance (SKOV-3TR; Doxorubicin, NSC23925b 1 μM): 32 fold
- fold-reversal of drug resistance (SKOV-3TR; Mitoxantrane, NSC23925b 0.1 μM): 1.2 fold
- fold-reversal of drug resistance (SKOV-3TR; Mitoxantrane, NSC23925b 0.5 μM): 2.6 fold
- fold-reversal of drug resistance (SKOV-3TR; Mitoxantrane, NSC23925b 1 μM): 8 fold
- fold-reversal of drug resistance (SKOV-3TR; Paclitaxel, NSC23925b 0.1 μM): 2 fold
- fold-reversal of drug resistance (SKOV-3TR; Paclitaxel, NSC23925b 0.5 μM): 7 fold
- fold-reversal of drug resistance (SKOV-3TR; Paclitaxel, NSC23925b 1 μM): 28 fold
- potency of isomer on reversing drug resistance (SKOV-3TR; with paclitaxel, MTT 6 days post-treatment): most potent isomer
- reversal of MRP1 mediated drug resistance (H-69AR): unable to reverse drug resistance
- fold-reversal of drug resistance (MCF-7adr; Doxorubicin, NSC23925b 0.1 μM): 1.4 fold
- fold-reversal of drug resistance (MCF-7adr; Doxorubicin, NSC23925b 0.5 μM): 4 fold
- fold-reversal of drug resistance (MCF-7adr; Doxorubicin, NSC23925b 1 μM): 15 fold
- reverse paclitaxel, doxorubicin, and mitoxantrane resistance (MCF-7adr; MTT 6 days post-treatment): able to reverse
- fold-reversal of drug resistance (MCF-7adr; Mitoxantrane, NSC23925b 0.1 μM): 1.1 fold
- fold-reversal of drug resistance (MCF-7adr; Mitoxantrane, NSC23925b 0.5 μM): 3 fold
- fold-reversal of drug resistance (MCF-7adr; Mitoxantrane, NSC23925b 1 μM): 6 fold
- fold-reversal of drug resistance (MCF-7adr; Paclitaxel, NSC23925b 0.1 μM): 1.3 fold
- fold-reversal of drug resistance (MCF-7adr; Paclitaxel, NSC23925b 0.5 μM): 4 fold
- fold-reversal of drug resistance (MCF-7adr; Paclitaxel, NSC23925b 1 μM): 12 fold
